# Measured values as given in US9580463B2 (BRISTOL-MYERS SQUIBB COMPANY, priority 2013, dated 2017).
# System: HCV genotype 1b (Con1) replicon in HUH-7 cells
# Assay: HCV replicon luciferase reporter assay, genotype 1b
# Assay type: cell-based
# Settings: Hepatitis C virus, 72 h, genotype 1b replicon, 3 days incubation, read-out: LE_1b (EC50, range)
# Source text: An HCV replicon whole cell system was established as described by Lohmann V, Korner F, Koch J, Herian U, Theilmann L, Bartenschlager R., Science 285(5424):110-3 (1999) and modified to introduce a luciferase reporter, as first described by Krieger et al (Krieger N, Lohmann V, and Bartenschlager R, J. Virol. 75(10):4614-4624 (2001)). CDNA encoding a humanized form of the Renilla luciferase gene and a linker sequence fused directly to the 3′-end of the luciferase gene were introduced into the replicon construct using an Asc1 restriction site located in core, directly upstream of the neomycin marker gene. The adaptive mutation at position 1179 (serine to isoleucine) was also introduced (Blight K J, Kolykhalov, A A, Rice, C M, Science 290(5498):1972-1974). A stable cell line constitutively expressing this HCV replicon construct was generated by first linearizing plasmid DNAs with ScaI. RNA transcripts were synthesized in vitro using the T7 MegaScript transcription kit (Ambion, Austin, Tex.) according to manufacturer's directions. In vitro transcripts of the cDNA were transfected into the human hepatoma cell line, HUH-7. […] Resulting cell lines were characterized for positive and negative strand RNA production and protein production over time. […]
# HCV replicon luciferase assays were developed to monitor the inhibitory effects of compounds described in the disclosure on HCV genotypes 1a and 1b viral replication. HUH-7 cells, constitutively expressing the HCV replicon, were grown in Dulbecco's Modified Eagle Media (DMEM) (Gibco-BRL) containing 10% Fetal calf serum (FCS) (Sigma) and 1 mg/mL G418 (Gibco-BRL). Compounds were serially diluted 3 folds in DMSO for a twenty-point titration and subsequently transferred to sterile 384-well tissue-culture treated plates (Corning cat #3571). The plates were then seeded with 50 μL of cells at a density of 3.0×10^3 cells/well in DMEM containing 4% FCS (final DMSO concentration at 0.5%). After 3 days incubation at 37° C., cells were analyzed for Renilla Luciferase activity using the EnduRen as substrate (Promega cat #E6485). The EnduRen substrate was diluted in DMEM and then added to the plates to a final concentration of 7.5 μM. The plates were incubated for 2 hrs at 37° C. and then read immediately for 30 seconds with Viewlux Imager (PerkinElmer) using a luminescence program. To assess cytotoxicity of compounds, CC50 values were generated by multiplexing the EnduRen-containing plates with Cell Titer-Blue (Promega, cat # G8082). Cell-Titer Blue (3 μL) was added to each well and incubated for 8 hrs at 37° C. The fluorescence signal from each well was read, with an excitation wavelength at 525/10 nm and an emission wavelength of 598/10 nm, using the Viewlux Imager.
# The EC50 values for compounds were calculated by using a four-parameter logistic equation: y=A+((B−A)/(1+((C/x)^D))), where A and B denotes minimal and maximal % inhibition, respectively, C is the EC50, D is the hill slope and x represents compound concentration.
row,SMILES,EC50 [nM]
1,"COC[C@@H]1C[C@@H](C)CC/C=C\[C@@H]2C[C@@]2(C(=O)NS(=O)(=O)C2(C)CC2)NC(=O)[C@@H]2C[C@@H](Oc3nc4cc(OC(C)C)ccc4nc3C(F)(F)F)CN2C(=O)[C@H]1NC(=O)OC(C)(C)C(C)(F)F [Compound 1055, 3,3-difluoro-2-methylbutan-2-yl ((2R,6S,7R,9S,13aS,14aR,16aS,Z)-2-((7-isopropoxy-3-(trifluoromethyl)quinoxalin-2-yl)oxy)-7-(methoxymethyl)-9-methyl-14a-(((1-methylcyclopropyl)sulfonyl)carbamoyl)-5,16-dioxo-1,2,3,5,6,7,8,9,10,11,13a,14,14a,15,16,16a-hexadecahydrocyclopropa[e]pyrrolo[1,2-a][1,4]diazacyclopentadecin-6-yl)carbamate]",1.01 to 5
2,"COC[C@@H]1C[C@H](C)CC/C=C\[C@@H]2C[C@@]2(C(=O)NS(=O)(=O)C2(C)CC2)NC(=O)[C@@H]2C[C@@H](Oc3nc4cc(OC(C)C)ccc4nc3C(F)(F)F)CN2C(=O)[C@H]1NC(=O)OC(C)(C)C(C)(F)F [Compound 1056, 3,3-difluoro-2-methylbutan-2-yl ((2R,6S,7R,9R,13aS,14aR,16aS,Z)-2-((7-isopropoxy-3-(trifluoromethyl)quinoxalin-2-yl)oxy)-7-(methoxymethyl)-9-methyl-14a-(((1-methylcyclopropyl)sulfonyl)carbamoyl)-5,16-dioxo-1,2,3,5,6,7,8,9,10,11,13a,14,14a,15,16,16a-hexadecahydrocyclopropa[e]pyrrolo[1,2-a][1,4]diazacyclopentadecin-6-yl)carbamate]",0.1 to 0.5
3,"COC[C@@H]1C[C@@H](C)CC/C=C\[C@@H]2C[C@@]2(C(=O)NS(=O)(=O)C2(C)CC2)NC(=O)[C@@H]2C[C@@H](Oc3nc4cc(OC(C)C)ccc4nc3C(F)(F)F)CN2C(=O)[C@H]1NC(=O)OC(C)(C)C(F)(F)F [Compound 1057, 1,1,1-trifluoro-2-methylpropan-2-yl ((2R,6S,7R,9S,13aS,14aR,16aS,Z)-2-((7-isopropoxy-3-(trifluoromethyl)quinoxalin-2-yl)oxy)-7-(methoxymethyl)-9-methyl-14a-(((1-methylcyclopropyl)sulfonyl)carbamoyl)-5,16-dioxo-1,2,3,5,6,7,8,9,10,11,13a,14,14a,15,16,16a-hexadecahydrocyclopropa[e]pyrrolo[1,2-a][1,4]diazacyclopentadecin-6-yl)carbamate]",5.01 to 35
4,"COC[C@@H]1C[C@H](C)CC/C=C\[C@@H]2C[C@@]2(C(=O)NS(=O)(=O)C2(C)CC2)NC(=O)[C@@H]2C[C@@H](Oc3nc4cc(OC(C)C)ccc4nc3C(F)(F)F)CN2C(=O)[C@H]1NC(=O)OC(C)(C)C(F)(F)F [Compound 1058, 1,1,1-trifluoro-2-methylpropan-2-yl ((2R,6S,7R,9R,13aS,14aR,16aS,Z)-2-((7-isopropoxy-3-(trifluoromethyl)quinoxalin-2-yl)oxy)-7-(methoxymethyl)-9-methyl-14a-(((1-methylcyclopropyl)sulfonyl)carbamoyl)-5,16-dioxo-1,2,3,5,6,7,8,9,10,11,13a,14,14a,15,16,16a-hexadecahydrocyclopropa[e]pyrrolo[1,2-a][1,4]diazacyclopentadecin-6-yl)carbamate]",0.1 to 0.5
5,"COC[C@@H]1C[C@@H](C)CC/C=C\[C@@H]2C[C@@]2(C(=O)NS(=O)(=O)C2(C)CC2)NC(=O)[C@@H]2C[C@@H](Oc3nc(OC)c4c(OC)cccc4n3)CN2C(=O)[C@H]1NC(=O)OC(C)(C)C(F)(F)F [Compound 1059, 1,1,1-trifluoro-2-methylpropan-2-yl ((2R,6S,7R,9S,13aS,14aR,16aS,Z)-2-((4,5-dimethoxyquinazolin-2-yl)oxy)-7-(methoxymethyl)-9-methyl-14a-(((1-methylcyclopropyl)sulfonyl)carbamoyl)-5,16-dioxo-1,2,3,5,6,7,8,9,10,11,13a,14,14a,15,16,16a-hexadecahydrocyclopropa[e]pyrrolo[1,2-a][1,4]diazacyclopentadecin-6-yl)carbamate]",35 to 620
6,"COC[C@@H]1C[C@H](C)CC/C=C\[C@@H]2C[C@@]2(C(=O)NS(=O)(=O)C2(C)CC2)NC(=O)[C@@H]2C[C@@H](Oc3nc(OC)c4c(OC)cccc4n3)CN2C(=O)[C@H]1NC(=O)OC(C)(C)C(F)(F)F [Compound 1060, 1,1,1-trifluoro-2-methylpropan-2-yl ((2R,6S,7R,9R,13aS,14aR,16aS,Z)-2-((4,5-dimethoxyquinazolin-2-yl)oxy)-7-(methoxymethyl)-9-methyl-14a-(((1-methylcyclopropyl)sulfonyl)carbamoyl)-5,16-dioxo-1,2,3,5,6,7,8,9,10,11,13a,14,14a,15,16,16a-hexadecahydrocyclopropa[e]pyrrolo[1,2-a][1,4]diazacyclopentadecin-6-yl)carbamate]",1.01 to 5
7,"COC[C@@H]1C[C@H](C)CC/C=C\[C@@H]2C[C@@]2(C(=O)NS(=O)(=O)C2(C)CC2)NC(=O)[C@@H]2C[C@@H](Oc3nc(OC)c4c(OC)cccc4n3)CN2C(=O)[C@H]1NC(=O)OC(C)(C)C [Compound 1061, tert-butyl ((2R,6S,7R,9R,13aS,14aR,16aS,Z)-2-((4,5-dimethoxyquinazolin-2-yl)oxy)-7-(methoxymethyl)-9-methyl-14a-(((1-methylcyclopropyl)sulfonyl)carbamoyl)-5,16-dioxo-1,2,3,5,6,7,8,9,10,11,13a,14,14a,15,16,16a-hexadecahydrocyclopropa[e]pyrrolo[1,2-a][1,4]diazacyclopentadecin-6-yl)carbamate]",5.01 to 35
8,"COC[C@@H]1C[C@H](C)CC/C=C\[C@@H]2C[C@@]2(C(=O)NS(=O)(=O)C2(C)CC2)NC(=O)[C@@H]2C[C@@H](Oc3nc(OC)c4c(OC)cccc4n3)CN2C(=O)[C@H]1NC(=O)OC(C)(C)C(C)(F)F [Compound 1062, 3,3-difluoro-2-methylbutan-2-yl ((2R,6S,7R,9R,13aS,14aR,16aS,Z)-2-((4,5-dimethoxyquinazolin-2-yl)oxy)-7-(methoxymethyl)-9-methyl-14a-(((1-methylcyclopropyl)sulfonyl)carbamoyl)-5,16-dioxo-1,2,3,5,6,7,8,9,10,11,13a,14,14a,15,16,16a-hexadecahydrocyclopropa[e]pyrrolo[1,2-a][1,4]diazacyclopentadecin-6-yl)carbamate]",1.01 to 5
9,"CCOc1cnc(O[C@@H]2C[C@H]3C(=O)N[C@]4(C(=O)NS(=O)(=O)C5(C)CC5)C[C@H]4/C=C\CC[C@H](C)C[C@@H](COC)[C@H](NC(=O)OC(C)(C)C)C(=O)N3C2)c2ccc(OC)cc12 [Compound 1063, tert-butyl ((2R,6S,7R,9S,13aS,14aR,16aS,Z)-2-((4-ethoxy-6-methoxyisoquinolin-1-yl)oxy)-7-(methoxymethyl)-9-methyl-14a-(((1-methylcyclopropyl)sulfonyl)carbamoyl)-5,16-dioxo-1,2,3,5,6,7,8,9,10,11,13a,14,14a,15,16,16a-hexadecahydrocyclopropa[e]pyrrolo[1,2-a][1,4]diazacyclopentadecin-6-yl)carbamate]",0.1 to 0.5
10,"CCOc1cnc(O[C@@H]2C[C@H]3C(=O)N[C@]4(C(=O)NS(=O)(=O)C5(C)CC5)C[C@H]4/C=C\CC[C@@H](C)C[C@@H](COC)[C@H](NC(=O)OC(C)(C)C)C(=O)N3C2)c2ccc(OC)cc12 [Compound 1064, tert-butyl ((2R,6S,7R,9R,13aS,14aR,16aS,Z)-2-((4-ethoxy-6-methoxyisoquinolin-1-yl)oxy)-7-(methoxymethyl)-9-methyl-14a-(((1-methylcyclopropyl)sulfonyl)carbamoyl)-5,16-dioxo-1,2,3,5,6,7,8,9,10,11,13a,14,14a,15,16,16a-hexadecahydrocyclopropa[e]pyrrolo[1,2-a][1,4]diazacyclopentadecin-6-yl)carbamate]",0.1 to 0.5
11,"CCOc1cnc(O[C@@H]2C[C@H]3C(=O)N[C@]4(C(=O)NS(=O)(=O)C5(C)CC5)C[C@H]4/C=C\CC[C@H](C)C[C@@H](COC)[C@H](NC(=O)OC(C)(C)C(F)(F)F)C(=O)N3C2)c2ccc(OC)cc12 [Compound 1065, 1,1,1-trifluoro-2-methylpropan-2-yl ((2R,6S,7R,9S,13aS,14aR,16aS,Z)-2-((4-ethoxy-6-methoxyisoquinolin-1-yl)oxy)-7-(methoxymethyl)-9-methyl-14a-(((1-methylcyclopropyl)sulfonyl)carbamoyl)-5,16-dioxo-1,2,3,5,6,7,8,9,10,11,13a,14,14a,15,16,16a-hexadecahydrocyclopropa[e]pyrrolo[1,2-a][1,4]diazacyclopentadecin-6-yl)carbamate]",0.1 to 0.5
